The record followed here is patent US7601716B2, “Pyridopyrazines and derivatives thereof as ALK and c-Met inhibitors” (Cephalon, Inc., priority 2006, dated 2009).

Molecules are shown by their SMILES.

Assay [1] concerns the target baculovirus-expressed ALK (Homo sapiens, UniProt Q9UM73). Kind of assay: ALK Kinase Assay (ELISA/TRF, PLC-γ substrate). Also: 1 µM ATP (Km level). The assay is classed as biochemical. Conditions: read-out: ALK Kinase Inhibition (IC50). An outline of the steps:
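GST-PLC-γ coat 10 μg/mL/TBS; 30 ng/ml ALK, 37° C, 15 min; Eu-PT66 anti-pTyr 1 h 37° C, enhancement, TRF. IC50: % inhib vs log10[cpd], variable-slope sigmoid.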

Assay [2] has as its target T1, c-Met (cytoplasmic domain) (Homo sapiens, UniProt P08581).
T1 construct: Reactions were initiated with 30 ng/mL c-Met (cytoplasmic domain, Invitrogen Corporation #PV3143); purchased Invitrogen Corporation PV3143
As to the kind of experiment: c-Met Kinase Assay (ELISA/TRF, PLC-γ substrate). It counts as biochemical. The settings on record: 3 μM ATP (Km level); read-out: c-Met Kinase Inhibition (IC50). The method in brief:
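c-Met cytoplasmic domain (30 ng/mL) phosphorylates plate-coated GST–PLC-γ for 15 min at 37 °C. Phosphotyrosine detected with Eu-labeled PT66 antibody by time-resolved fluorescence. IC50 from variable-slope sigmoidal fit of % inhibition vs log concentration.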
Background: ELISA stands for enzyme-linked immunosorbent assay.

Sequence of baculovirus-expressed ALK (Q9UM73 19-1620): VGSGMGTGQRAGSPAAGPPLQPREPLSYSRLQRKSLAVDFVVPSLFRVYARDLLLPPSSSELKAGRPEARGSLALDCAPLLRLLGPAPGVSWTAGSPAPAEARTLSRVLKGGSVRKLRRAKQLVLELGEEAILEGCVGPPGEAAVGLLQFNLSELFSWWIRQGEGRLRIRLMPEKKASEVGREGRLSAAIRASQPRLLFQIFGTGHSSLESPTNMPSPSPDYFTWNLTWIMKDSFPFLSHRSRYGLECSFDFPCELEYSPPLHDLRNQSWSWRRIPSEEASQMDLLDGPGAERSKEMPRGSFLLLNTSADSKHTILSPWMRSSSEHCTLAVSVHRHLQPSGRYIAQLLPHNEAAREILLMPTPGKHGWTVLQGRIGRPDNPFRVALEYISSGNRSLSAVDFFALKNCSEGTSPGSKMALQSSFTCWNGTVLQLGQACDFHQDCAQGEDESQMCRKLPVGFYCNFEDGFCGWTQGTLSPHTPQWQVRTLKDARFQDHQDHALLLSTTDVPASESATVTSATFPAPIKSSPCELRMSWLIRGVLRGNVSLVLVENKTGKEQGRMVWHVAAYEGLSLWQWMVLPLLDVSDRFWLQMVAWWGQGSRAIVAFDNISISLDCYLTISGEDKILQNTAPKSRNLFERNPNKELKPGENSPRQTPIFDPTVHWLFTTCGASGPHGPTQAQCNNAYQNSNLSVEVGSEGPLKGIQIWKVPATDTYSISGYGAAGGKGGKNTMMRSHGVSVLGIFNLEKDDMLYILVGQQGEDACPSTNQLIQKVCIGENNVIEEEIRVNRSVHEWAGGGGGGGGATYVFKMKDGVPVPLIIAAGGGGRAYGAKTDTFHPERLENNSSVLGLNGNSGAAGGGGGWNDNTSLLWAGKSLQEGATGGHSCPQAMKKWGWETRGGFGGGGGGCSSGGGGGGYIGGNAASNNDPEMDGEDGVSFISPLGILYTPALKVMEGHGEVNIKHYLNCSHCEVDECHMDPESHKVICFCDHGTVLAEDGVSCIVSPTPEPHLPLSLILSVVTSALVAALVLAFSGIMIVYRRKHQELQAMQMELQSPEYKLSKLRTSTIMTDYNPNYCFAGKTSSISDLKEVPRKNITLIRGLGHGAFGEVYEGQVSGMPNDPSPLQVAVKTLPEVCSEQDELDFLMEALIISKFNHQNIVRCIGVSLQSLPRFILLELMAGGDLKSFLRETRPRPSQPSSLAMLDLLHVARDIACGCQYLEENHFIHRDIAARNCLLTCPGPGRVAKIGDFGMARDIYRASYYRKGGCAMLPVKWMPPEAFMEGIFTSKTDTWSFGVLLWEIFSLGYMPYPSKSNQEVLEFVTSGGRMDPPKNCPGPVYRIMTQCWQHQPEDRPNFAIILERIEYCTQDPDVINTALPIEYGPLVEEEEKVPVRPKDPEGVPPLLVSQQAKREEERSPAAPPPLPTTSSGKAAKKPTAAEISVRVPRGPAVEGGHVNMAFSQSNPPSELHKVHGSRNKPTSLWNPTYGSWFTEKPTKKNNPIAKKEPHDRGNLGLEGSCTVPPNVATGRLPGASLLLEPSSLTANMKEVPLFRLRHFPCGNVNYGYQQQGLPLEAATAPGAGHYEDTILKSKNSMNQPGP
T1 sequence (P08581 956-1390 limits assumed): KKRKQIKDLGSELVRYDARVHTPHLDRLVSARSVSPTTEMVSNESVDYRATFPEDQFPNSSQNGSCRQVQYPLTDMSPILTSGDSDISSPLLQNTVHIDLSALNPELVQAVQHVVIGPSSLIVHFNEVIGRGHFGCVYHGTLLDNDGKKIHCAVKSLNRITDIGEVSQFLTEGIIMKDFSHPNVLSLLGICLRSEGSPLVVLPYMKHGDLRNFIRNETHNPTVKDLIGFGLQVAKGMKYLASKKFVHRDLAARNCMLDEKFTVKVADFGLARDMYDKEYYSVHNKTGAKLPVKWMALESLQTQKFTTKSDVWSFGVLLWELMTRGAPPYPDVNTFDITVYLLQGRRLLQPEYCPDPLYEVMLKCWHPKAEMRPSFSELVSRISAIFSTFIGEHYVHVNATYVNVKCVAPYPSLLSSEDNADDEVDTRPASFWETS

As to `Fc1ccc(F)c(CN2CCNc3ncc(-c4ccnc(N5CCCC5)c4)cc32)c1Cl` [Example 183, 1-(2-Chloro-3,6-difluorobenzyl)-7-(2-pyrrolidin-1-yl-pyridin-4-yl)-1,2,3,4-tetrahydropyrido[2,3-b]pyrazine], the IC50 in assay [1] was 0.1 to 1 µM; in assay [2], 1 to 10 µM.

`CN1CCN(Cc2cc(Cl)ccc2Cl)c2cc(I)cnc21` [Example 187, 1-(2,5-Dichlorobenzyl)-7-iodo-4-methyl-1,2,3,4-tetrahydropyrido[2,3-b]pyrazine]: the half-inhibitory concentration (IC50) in assay [1] and in assay [2] was more than 100 µM throughout.

Regarding `CN1CCN(c2ccc(-c3cnc4c(c3)N(Cc3cc(Cl)ccc3Cl)CCN4C)cn2)CC1` [Example 188, 1-(2,5-Dichlorobenzyl)-4-methyl-7-[6-(4-methylpiperazin-1-yl)pyridin-3-yl]-1,2,3,4-tetrahydropyrido[2,3-b]pyrazine], the IC50 was 1 to 10 µM in assay [1] and more than 100 µM in assay [2].

With `O=C(O)c1ccc(-c2cnc3c(c2)N(Cc2cc(Cl)ccc2C(F)(F)F)CCN3)cc1` [Example 195, 4-{1-[5-Chloro-2-(trifluoromethyl)benzyl]-1,2,3,4-tetrahydropyrido[2,3-b]pyrazin-7-yl}benzoic acid], the IC50 in assay [1] and in assay [2] was 1 to 10 µM in each case.

As for `O=C(O)c1cccc(-c2cnc3c(c2)N(Cc2cc(Cl)ccc2C(F)(F)F)CCN3)c1` [Example 196, 3-{1-[5-Chloro-2-(trifluoromethyl)benzyl]-1,2,3,4-tetrahydropyrido[2,3-b]pyrazin-7-yl}benzoic acid], the values for the IC50 in assay [1] and in assay [2] were 1 to 10 µM and 10 to 100 µM, respectively.

Turning to `CN(C)CCn1cc(-c2cnc3c(c2)N(Cc2c(F)ccc(F)c2Cl)CCN3)cn1` [Example 197, (2-{4-[1-(2-Chloro-3,6-difluorobenzyl)-1,2,3,4-tetrahydropyrido[2,3-b]pyrazin-7-yl]-pyrazol-1-yl}ethyl)dimethylamine], the IC50 was in the range of 0.1 to 1 µM in assay [1] and 1 to 10 µM in assay [2].

On to `FC(F)(F)c1ccc(Cl)cc1CN1CCNc2ncc(-c3cc[nH]c3)cc21` [Example 202, 1-[5-Chloro-2-(trifluoromethyl)benzyl]-7-(1H-pyrrol-3-yl)-1,2,3,4-tetrahydro-pyrido[2,3-b]pyrazine], for which the results for the IC50 in assay [1] and in assay [2] were 0.1 to 1 µM and 10 to 100 µM, respectively.

Take `O=C(c1cnc2c(c1)N(Cc1cc(Cl)ccc1Cl)CCN2)N1CCN(c2ccccc2)CC1` [Example 206, [1-(2,5-Dichlorobenzyl)-1,2,3,4-tetrahydropyrido[2,3-b]pyrazin-7-yl]-(4-phenylpiperazin-1-yl)-methanone]: the IC50 was 10 to 100 µM in assay [1] and more than 100 µM in assay [2].

Consider `O=C(c1cnc2c(c1)N(Cc1cc(Cl)ccc1Cl)CCN2)N1CCN(c2ncccn2)CC1` [Example 207, [1-(2,5-Dichlorobenzyl)-1,2,3,4-tetrahydropyrido[2,3-b]pyrazin-7-yl]-(4-pyrimidin-2-yl-piperazin-1-yl)-methanone], for which the IC50 in assay [1] was 1 to 10 µM; in assay [2] it was more than 100 µM.

Take `O=C(c1cnc2c(c1)N(Cc1cc(Cl)ccc1Cl)CCN2)N1CCC(O)(c2ccc(Cl)cc2)CC1` [Example 208, [4-(4-Chlorophenyl)-4-hydroxypiperidin-1-yl]-[1-(2,5-dichlorobenzyl)-1,2,3,4-tetrahydropyrido[2,3-b]pyrazin-7-yl]methanone]: the results for the IC50 in assay [1] and in assay [2] were 1 to 10 µM and more than 100 µM, respectively.

Consider `O=C(c1cnc2c(c1)N(Cc1cc(Cl)ccc1Cl)CCN2)N1CCC(n2c(=O)[nH]c3ccccc32)CC1` [Example 209, 1-{1-[1-(2,5-Dichlorobenzyl)-1,2,3,4-tetrahydropyrido[2,3-b]pyrazine-7-carbonyl]piperidin-4-yl}-1,3-dihydrobenzoimidazol-2-one], for which the IC50 in assay [1] lay within 1 to 10 µM; in assay [2] it was 10 to 100 µM.

Turning to `COc1ccccc1N1CCN(C(=O)c2cnc3c(c2)N(Cc2cc(Cl)ccc2Cl)CCN3)CC1` [Example 210, [1-(2,5-Dichlorobenzyl)-1,2,3,4-tetrahydropyrido[2,3-b]pyrazin-7-yl]-[4-(2-methoxyphenyl)piperazin-1-yl]methanone], the figures for the IC50 in assay [1] and in assay [2] were 1 to 10 µM and 10 to 100 µM, respectively.

In the case of `O=C(c1cnc2c(c1)N(Cc1cc(Cl)ccc1Cl)CCN2)N1CCN(c2cccc(C(F)(F)F)c2)CC1` [Example 211, [1-(2,5-Dichlorobenzyl)-1,2,3,4-tetrahydropyrido[2,3-b]pyrazin-7-yl]-{4-[3-(trifluoromethyl)phenyl]piperazin-1-yl}methanone], the IC50 in assay [1] and in assay [2] was 10 to 100 µM in each case.

`O=C(c1cnc2c(c1)N(Cc1cc(Cl)ccc1Cl)CCN2)N1CCC(c2ccccc2)CC1` [Example 212, [1-(2,5-Dichlorobenzyl)-1,2,3,4-tetrahydropyrido[2,3-b]pyrazin-7-yl]-(4-phenylpiperidin-1-yl)methanone]: the IC50 in assay [1] and in assay [2] was 1 to 10 µM each time.

For `O=C(c1cnc2c(c1)N(Cc1cc(Cl)ccc1Cl)CCN2)N1CCN(c2ccc(Cl)c(Cl)c2)CC1` [Example 213, [1-(2,5-Dichlorobenzyl)-1,2,3,4-tetrahydropyrido[2,3-b]pyrazin-7-yl]-[4-(3,4-dichlorophenyl)-piperazin-1-yl]methanone], the half-maximal inhibitory concentration (IC50) in assay [1] was 1 to 10 µM; in assay [2] it was 10 to 100 µM.

As to `O=C(c1cnc2c(c1)N(Cc1cc(Cl)ccc1Cl)CCN2)N1CCN(C(c2ccccc2)c2ccccc2)CC1` [Example 214, (4-Benzhydrylpiperazin-1-yl)-[1-(2,5-dichlorobenzyl)-1,2,3,4-tetrahydropyrido[2,3-b]pyrazin-7-yl]methanone], the IC50 in assay [1] and in assay [2] was 10 to 100 µM throughout.

With `O=C(c1cnc2c(c1)N(Cc1cc(Cl)ccc1Cl)CCN2)N1CCC(Cc2ccccc2)CC1` [Example 215, (4-Benzylpiperidin-1-yl)-[1-(2,5-dichlorobenzyl)-1,2,3,4-tetrahydropyrido[2,3-b]pyrazin-7-yl]methanone], the IC50 in assay [1] and in assay [2] was 10 to 100 µM each time.

In the case of `O=C(c1cnc2c(c1)N(Cc1cc(Cl)ccc1Cl)CCN2)N1CCC2(CC1)C(=O)NCN2c1ccccc1` [Example 216, 8-[1-(2,5-Dichlorobenzyl)-1,2,3,4-tetrahydropyrido[2,3-b]pyrazine-7-carbonyl]-1-phenyl-1,3,8-triaza-spiro[4.5]decan-4-one], the IC50 in assay [1] is 1 to 10 µM; in assay [2] it was more than 100 µM.

Regarding `O=C(c1cnc2c(c1)N(Cc1cc(Cl)ccc1Cl)CCN2)N1CCN(c2ncnc3ccsc23)CC1` [Example 217, [1-(2,5-Dichlorobenzyl)-1,2,3,4-tetrahydropyrido[2,3-b]pyrazin-7-yl]-(4-thieno[3,2-d]pyrimidin-4-yl-piperazin-1-yl)methanone], the values for the concentration for half-maximal inhibition (IC50) in assay [1] and in assay [2] were 1 to 10 µM and more than 100 µM, respectively.

Consider `COc1ccc(CN2CCN(C(=O)c3cnc4c(c3)N(Cc3cc(Cl)ccc3Cl)CCN4)CC2)cc1` [Example 218, [1-(2,5-Dichlorobenzyl)-1,2,3,4-tetrahydropyrido[2,3-b]pyrazin-7-yl]-[4-(4-methoxybenzyl)piperazin-1-yl]methanone], for which the IC50 in assay [1] and in assay [2] was 10 to 100 µM in each case.

Consider `O=C(c1ccccc1)N1CCN(C(=O)c2cnc3c(c2)N(Cc2cc(Cl)ccc2Cl)CCN3)CC1` [Example 219, (4-Benzoylpiperazin-1-yl)-[1-(2,5-dichlorobenzyl)-1,2,3,4-tetrahydropyrido[2,3-b]pyrazin-7-yl]methanone], for which the results for the IC50 in assay [1] and in assay [2] were 1 to 10 µM and 10 to 100 µM, respectively.

Turning to `O=C(c1cnc2c(c1)N(Cc1cc(Cl)ccc1Cl)CCN2)N1CCN(c2nccc3occc23)CC1` [Example 220, [1-(2,5-Dichlorobenzyl)-1,2,3,4-tetrahydropyrido[2,3-b]pyrazin-7-yl]-(4-furo[3,2-c]pyridin-4-yl-piperazin-1-yl)methanone], the IC50 in assay [1] and in assay [2] was 1 to 10 µM in each case.

For `O=C(c1cnc2c(c1)N(Cc1cc(Cl)ccc1Cl)CCN2)N1CCC(c2noc3cc(F)ccc23)CC1` [Example 221, [1-(2,5-Dichlorobenzyl)-1,2,3,4-tetrahydropyrido[2,3-b]pyrazin-7-yl]-[4-(6-fluorobenzo[d]isoxazol-3-yl)piperidin-1-yl]methanone], the 50% inhibitory concentration (IC50) was 10 to 100 µM in assay [1] and more than 100 µM in assay [2].

With `O=C(c1cnc2c(c1)N(Cc1cc(Cl)ccc1Cl)CCN2)N1CCN(c2cccc(Cl)c2)CC1` [Example 222, [4-(3-Chlorophenyl)piperazin-1-yl]-[1-(2,5-dichlorobenzyl)-1,2,3,4-tetrahydropyrido[2,3-b]pyrazin-7-yl]methanone], the IC50 in assay [1] and in assay [2] was 10 to 100 µM each time.

As to `O=C(NCCc1ccccn1)c1cnc2c(c1)N(Cc1cc(Cl)ccc1Cl)CCN2` [Example 223, 1-(2,5-Dichlorobenzyl)-1,2,3,4-tetrahydropyrido[2,3-b]pyrazine-7-carboxylic acid (2-pyridin-2-yl-ethyl)amide], the IC50 was 1 to 10 µM in assay [1] and more than 100 µM in assay [2].

As to `CCOC(=O)N1CCC(NC(=O)c2cnc3c(c2)N(Cc2cc(Cl)ccc2Cl)CCN3)CC1` [Example 224, 4-{[1-(2,5-Dichlorobenzyl)-1,2,3,4-tetrahydropyrido[2,3-b]pyrazine-7-carbonyl]amino}piperidine-1-carboxylic acid ethyl ester], the half-maximal inhibitory concentration (IC50) in assay [1] is 1 to 10 µM; in assay [2] it was 10 to 100 µM.

For the compound `O=C(NC1CCN(Cc2ccccc2)CC1)c1cnc2c(c1)N(Cc1cc(Cl)ccc1Cl)CCN2` [Example 225, 1-(2,5-Dichlorobenzyl)-1,2,3,4-tetrahydropyrido[2,3-b]pyrazine-7-carboxylic acid (1-benzyl-piperidin-4-yl)amide], the half-maximal inhibitory concentration (IC50) in assay [1] is 1 to 10 µM; in assay [2] it was 10 to 100 µM.

Usually IC50 stands for the midpoint of a concentration-inhibition curve.
